# Measured values taken from article PMC5259778, “Candidate pheromone receptors of codling moth Cydia pomonella respond to pheromones and kairomones” (Scientific Reports, 2017).
# How the values were obtained:
# [1] = ref Scifinder, 2015; Chemspider; cited from earlier work
# CpomOR1 = assay: Single sensillum recordings, CpomOR1 expressed in Drosophila at1 OSNs; type: cell-based, Cydia pomonella; conditions: 10 μg per stimulus
# Excerpt: (§1) To perform heterologous expression in D. melanogaster OSNs, CpomORs were amplified using primers in Table 2 and purified PCR products were cloned into the PCR8/GW/TOPO plasmid (Invitrogen) following the recommended protocol. Cassettes with inserts were then transferred from their PCR8/GW/TOPO plasmids to the destination vector (pUASg-HA.attB, constructed by E. Furger and J. Bischof, kindly provided by the Basler group, Zürich), using the Gateway LR Clonase II kit (Invitrogen). The integrity and orientation of inserts was confirmed by sequencing (Sanger sequencer, 3730xl). Transformant UAS-CpomOR3 and UAS-CpomOR1 lines were generated by Best Gene (Chino Hills, CA, USA), using the PhiC31 integrase system, while the transformant UAS-CpomOR6a line was generated in our labs. Briefly, recombinant pUASg-HA.attB-CpomOR plasmids were injected into embryos of a D. melanogaster line containing an attP insertion site within the third chromosome (genotype y1 M{vas-int.Dm}ZH-2A w*; M{3xP3-RFP.attP}ZH-86Fb), leading to non-random integration. To drive expression of CpomORs in at1 OSNs in place of the endogenous receptor Or67d, transformant UAS-CpomOR lines were crossed to the knock-in Or67d^GAL4 line (kindly provided by Barry Dickson) to generate double homozygous lines w^+;UAS-CpomOR; Or67d^GAL4. Additionally, to drive expression of CpomOR3 in ab3A OSNs, the UAS-CpomOR3 line was crossed to the Δhalo;Or22a-Gal4 mutant line[20][57]. To verify insertion of UAS-CpomORs constructs into the genome, gDNA was extracted and used as template in PCR with primers for the full ORF of CpomORs (Table 2).
# (§2) CpomOR1 and CpomOR6a expressed in at1 OSNs, and CpomOR3 expressed in ab3A OSNs, were tested through single sensillum recordings (SSR). Three to 8-day-old flies were immobilized in 100 μL pipette tips with only the top half of the head protruding. The left antenna of each insect was gently pushed with a glass capillary against a double-sided adhesive tape placed on a piece of glass. This piece of glass and the pipette tip were fixed with dental wax on a microscope slide. Electrolytically sharpened tungsten electrodes (Harvard Apparatus Ltd, Edenbridge, United Kingdom) were used to penetrate the insect´s body. The reference electrode was manually inserted in the right eye of the fly, while the recording electrode was manoeuvred with a DC-3K micromanipulator equipped with a PM-10 piezo translator (Märzhäuser Wetzler GmbH, Wetzler, Germany) and inserted at the base of the determined sensilla. Signals coming from the olfactory sensory neurons were amplified 10 times with a probe (INR-02, Syntech, Hilversum, the Netherlands), digitally converted through an IDAC-4-USB (Syntech) interface, and visualized and analysed with the software Autospike v. 3.4 (Syntech). A constant flow of 0.65 m/s of humidified air (charcoal-filtered) was delivered through a glass tube to the antenna. The panel of odorants was given to the insect by inserting pipettes containing a piece of filter paper with the correspondent stimulus in a lateral hole of the glass tube and puffing a flow of 2.5 mL of air during 0.5 s through the pipette. For CpomOR1 and CpomOR6a the panel of odorants was prepared by applying 10 μL of a solution of 1.0 μg/μL of the compounds in Supplementary Dataset S2 and Supplementary Dataset S3, for a total amount of 10 μg per stimulus. In the case of CpomOR3, a similar dilution process was used for the dose response experiments of ethyl-(E,Z)-2,4-decadienoate and methyl-(E,Z)-2,4-decadienoate, as well for dose response of experiments of codlemone acetate in CpomOR6a. Compounds were diluted from concentrations ranging from 0.01 ng/μL to 10 μg/μL in decadic steps, allowing reaching concentrations from 100 pg to 100 μg per stimulus when 10 μL of the dilution was applied in the piece of filter paper. […]
# CpomOR6a = assay: Single sensillum recordings, CpomOR6a expressed in Drosophila at1 OSNs; type: cell-based, Cydia pomonella; conditions: for Spike/s: 10 μg per stimulus; for response compared with the solvent: 10 μg doses, Mann-Whitney U Test, p < 0.05
# Excerpt: as §1, §2
molecule,measurement,setting,value
"C=C(C)C1CC=C(C=O)CC1 (centres unmarked) [1,8-p-menthadien-7-al (perillaldehyde), 1,8-p-menthadien-7-al]",LogP,[1],3.053 ± 0.335
same,Solubility,[1],6.1 mM
CCCCCCCCCCCCO [1-dodecanol],Spikes/s,CpomOR1; replicate 1,-2 Spikes/s
same,Spikes/s,CpomOR1; replicate 2,4 Spikes/s
same,Spikes/s,CpomOR1; replicate 3,2 Spikes/s
same,Spikes/s,CpomOR1; replicate 4,-2 Spikes/s
same,Spikes/s,CpomOR1; replicate 5,2 Spikes/s
CCCCCCCCO [1-octanol],LogP,[1],2.876±0.177
CCCCCO [1-pentanol],LogP,[1],1.348±0.176
same,Solubility (M),[1],"0,24 M"
CCC(C)CO (centres unmarked) [2-methyl-1-butanol],LogP,[1],1.192±0.187
CC(C)CCC(=O)c1ccoc1 [3-(4-methyl-1-oxopentyl)furan-],LogP,[1],2.851 ± 0.318
same,Solubility,[1],2.1 mM
CC(C)CCO [3-methyl-1-butanol],LogP,[1],1.192±0.187
same,Solubility (M),[1],"0,34 M"
"C=C/C=C(\C)CCC=C(C)C [4,8-Dimethyl-1,(E)-3,7-nonatriene]",Spikes/s,CpomOR1; replicate 1,2 Spikes/s
same,Spikes/s,CpomOR1; replicate 2,-6 Spikes/s
same,Spikes/s,CpomOR1; replicate 3,2 Spikes/s
same,Spikes/s,CpomOR1; replicate 4,4 Spikes/s
same,Spikes/s,CpomOR1; replicate 5,-8 Spikes/s
C=CCc1ccc(OC)cc1 [4-Allylanisole],LogP,[1],3.088±0.223
CC(C)c1ccc(O)cc1 [4-isopropyl phenol],LogP,[1],2.986±0.200
same,Solubility (M),[1],"0,015 M"
CC(=O)CCC=C(C)C [6-methyl-5-hepten-2-one],LogP,[1],1.947±0.238
same,Solubility,[1],52 mM
C=C(C)[C@@H]1CCC2=CC(=O)C[C@@H](C)[C@]2(C)C1 [(+)-nootkatone],LogP,[1],3.765±0.275
same,Solubility (M),[1],"2,40E-04 M"
CCC/C=C/CCCCCCCO [(E8)-12:OH],Spikes/s,CpomOR1; replicate 1,-2 Spikes/s
same,Spikes/s,CpomOR1; replicate 2,4 Spikes/s
same,Spikes/s,CpomOR1; replicate 3,0 Spikes/s
same,Spikes/s,CpomOR1; replicate 4,0 Spikes/s
same,Spikes/s,CpomOR1; replicate 5,2 Spikes/s
"C/C=C\C=C\CCCCCCCO [(E8,Z10)-12:OH]",Spikes/s,CpomOR1; replicate 1,-2 Spikes/s
same,Spikes/s,CpomOR1; replicate 2,-2 Spikes/s
same,Spikes/s,CpomOR1; replicate 3,0 Spikes/s
same,Spikes/s,CpomOR1; replicate 4,-2 Spikes/s
same,Spikes/s,CpomOR1; replicate 5,-2 Spikes/s
CC/C=C/CCCCCCCCO [(E9)-12:OH],Spikes/s,CpomOR1; replicate 1,-4 Spikes/s
same,Spikes/s,CpomOR1; replicate 2,0 Spikes/s
same,Spikes/s,CpomOR1; replicate 3,2 Spikes/s
same,Spikes/s,CpomOR1; replicate 4,4 Spikes/s
same,Spikes/s,CpomOR1; replicate 5,-2 Spikes/s
C/C=C/CCCCCCCCCO [(E10)-12:OH],Spikes/s,CpomOR1; replicate 1,-2 Spikes/s
same,Spikes/s,CpomOR1; replicate 2,-2 Spikes/s
same,Spikes/s,CpomOR1; replicate 3,0 Spikes/s
same,Spikes/s,CpomOR1; replicate 4,-4 Spikes/s
same,Spikes/s,CpomOR1; replicate 5,2 Spikes/s
"CCC/C=C/CCCCCCCOC(C)=O [(E)-8:12Ac, (E)-8-dodecadien-1-yl acetate]",Spike/s,CpomOR6a; replicate 1,10 Spike/s
same,Spike/s,CpomOR6a; replicate 2,0 Spike/s
same,Spike/s,CpomOR6a; replicate 3,4 Spike/s
same,Spike/s,CpomOR6a; replicate 4,4 Spike/s
same,Spike/s,CpomOR6a; replicate 5,12 Spike/s
same,Spike/s,CpomOR6a; replicate 6,26 Spike/s
same,Spike/s,CpomOR6a; replicate 7,30 Spike/s
same,Spike/s,CpomOR6a; replicate 8,30 Spike/s
same,Spike/s,CpomOR6a; replicate 9,10 Spike/s
"C/C=C/CCCCCCCCCOC(C)=O [(E)-10:12Ac, (E)-10-dodecadien-1-yl acetate]",response compared with the solvent,CpomOR6a,significantly activated
same,Spike/s,CpomOR6a; replicate 1,26 Spike/s
same,Spike/s,CpomOR6a; replicate 2,26 Spike/s
same,Spike/s,CpomOR6a; replicate 3,28 Spike/s
same,Spike/s,CpomOR6a; replicate 4,60 Spike/s
same,Spike/s,CpomOR6a; replicate 5,34 Spike/s
same,Spike/s,CpomOR6a; replicate 6,36 Spike/s
same,Spike/s,CpomOR6a; replicate 7,50 Spike/s
same,Spike/s,CpomOR6a; replicate 8,66 Spike/s
same,Spike/s,CpomOR6a; replicate 9,26 Spike/s
C=CC(=C)CC/C=C(\C)CCC=C(C)C [(E)-β-farnesene],Spikes/s,CpomOR1; replicate 1,0 Spikes/s
same,Spikes/s,CpomOR1; replicate 2,4 Spikes/s
same,Spikes/s,CpomOR1; replicate 3,2 Spikes/s
same,Spikes/s,CpomOR1; replicate 4,0 Spikes/s
same,Spikes/s,CpomOR1; replicate 5,2 Spikes/s
C=C/C(C)=C/CC=C(C)C [(E)-β-ocimene],Spikes/s,CpomOR1; replicate 1,2 Spikes/s
same,Spikes/s,CpomOR1; replicate 2,8 Spikes/s
same,Spikes/s,CpomOR1; replicate 3,0 Spikes/s
same,Spikes/s,CpomOR1; replicate 4,2 Spikes/s
same,Spikes/s,CpomOR1; replicate 5,4 Spikes/s
"C/C=C\C=C\CCCCCCCOC(C)=O [(E,Z)-8,10:12Ac, (E,Z)-8,10-dodecadien-1yl acetate]",response compared with the solvent,CpomOR6a,significantly activated
same,Spike/s,CpomOR6a; replicate 1,6 Spike/s
same,Spike/s,CpomOR6a; replicate 2,10 Spike/s
same,Spike/s,CpomOR6a; replicate 3,16 Spike/s
same,Spike/s,CpomOR6a; replicate 4,6 Spike/s
same,Spike/s,CpomOR6a; replicate 5,8 Spike/s
same,Spike/s,CpomOR6a; replicate 6,24 Spike/s
same,Spike/s,CpomOR6a; replicate 7,16 Spike/s
same,Spike/s,CpomOR6a; replicate 8,34 Spike/s
same,Spike/s,CpomOR6a; replicate 9,2 Spike/s
"C/C=C/C=C\CCCCCCCO [(Z8,E10)-12:OH]",Spikes/s,CpomOR1; replicate 1,0 Spikes/s
same,Spikes/s,CpomOR1; replicate 2,0 Spikes/s
same,Spikes/s,CpomOR1; replicate 3,6 Spikes/s
same,Spikes/s,CpomOR1; replicate 4,8 Spikes/s
same,Spikes/s,CpomOR1; replicate 5,-4 Spikes/s
"C/C=C\C=C/CCCCCCCO [(Z8,Z10)-12:OH]",Spikes/s,CpomOR1; replicate 1,-2 Spikes/s
same,Spikes/s,CpomOR1; replicate 2,0 Spikes/s
same,Spikes/s,CpomOR1; replicate 3,0 Spikes/s
same,Spikes/s,CpomOR1; replicate 4,4 Spikes/s
same,Spikes/s,CpomOR1; replicate 5,12 Spikes/s
"C/C=C\C/C=C/CCCCCCCCOC(C)=O [(Z9,E12)-14:Ac]",Spikes/s,CpomOR1; replicate 1,2 Spikes/s
same,Spikes/s,CpomOR1; replicate 2,-4 Spikes/s
same,Spikes/s,CpomOR1; replicate 3,2 Spikes/s
same,Spikes/s,CpomOR1; replicate 4,-10 Spikes/s
same,Spikes/s,CpomOR1; replicate 5,0 Spikes/s
"CCC/C=C\CCCCCCCOC(C)=O [(Z)-8:12Ac, (Z)-8-dodecadien-1yl acetate]",Spike/s,CpomOR6a; replicate 1,0 Spike/s
same,Spike/s,CpomOR6a; replicate 2,0 Spike/s
same,Spike/s,CpomOR6a; replicate 3,0 Spike/s
same,Spike/s,CpomOR6a; replicate 4,4 Spike/s
same,Spike/s,CpomOR6a; replicate 5,-2 Spike/s
same,Spike/s,CpomOR6a; replicate 6,22 Spike/s
same,Spike/s,CpomOR6a; replicate 7,32 Spike/s
same,Spike/s,CpomOR6a; replicate 8,6 Spike/s
same,Spike/s,CpomOR6a; replicate 9,-8 Spike/s
"C/C=C\CCCCCCCCCOC(C)=O [(Z)-10:12Ac, (Z)-10-dodecadien-1-yl acetate]",Spike/s,CpomOR6a; replicate 1,0 Spike/s
same,Spike/s,CpomOR6a; replicate 2,6 Spike/s
same,Spike/s,CpomOR6a; replicate 3,2 Spike/s
same,Spike/s,CpomOR6a; replicate 4,2 Spike/s
same,Spike/s,CpomOR6a; replicate 5,6 Spike/s
same,Spike/s,CpomOR6a; replicate 6,12 Spike/s
same,Spike/s,CpomOR6a; replicate 7,14 Spike/s
same,Spike/s,CpomOR6a; replicate 8,4 Spike/s
same,Spike/s,CpomOR6a; replicate 9,4 Spike/s
"C/C=C/C=C\CCCCCCCOC(C)=O [(Z,E)-8,10:12Ac, (Z,E)-8,10-dodecadien-1yl acetate]",Spike/s,CpomOR6a; replicate 1,10 Spike/s
same,Spike/s,CpomOR6a; replicate 2,2 Spike/s
same,Spike/s,CpomOR6a; replicate 3,-4 Spike/s
same,Spike/s,CpomOR6a; replicate 4,8 Spike/s
same,Spike/s,CpomOR6a; replicate 5,0 Spike/s
same,Spike/s,CpomOR6a; replicate 6,18 Spike/s
same,Spike/s,CpomOR6a; replicate 7,26 Spike/s
same,Spike/s,CpomOR6a; replicate 8,40 Spike/s
same,Spike/s,CpomOR6a; replicate 9,10 Spike/s
"C/C=C\C=C/CCCCCCCOC(C)=O [(Z,Z)-8,10:12Ac, (Z,Z)-8,10-dodecadien-1yl acetate]",response compared with the solvent,CpomOR6a,significantly activated
same,Spike/s,CpomOR6a; replicate 1,14 Spike/s
same,Spike/s,CpomOR6a; replicate 2,12 Spike/s
same,Spike/s,CpomOR6a; replicate 3,10 Spike/s
same,Spike/s,CpomOR6a; replicate 4,16 Spike/s
same,Spike/s,CpomOR6a; replicate 5,20 Spike/s
same,Spike/s,CpomOR6a; replicate 6,20 Spike/s
same,Spike/s,CpomOR6a; replicate 7,10 Spike/s
same,Spike/s,CpomOR6a; replicate 8,32 Spike/s
same,Spike/s,CpomOR6a; replicate 9,12 Spike/s
CCCCCC(=O)OCCCC [butyl hexanoate],Spikes/s,CpomOR1; replicate 1,4 Spikes/s
same,Spikes/s,CpomOR1; replicate 2,-4 Spikes/s
same,Spikes/s,CpomOR1; replicate 3,2 Spikes/s
same,Spikes/s,CpomOR1; replicate 4,0 Spikes/s
same,Spikes/s,CpomOR1; replicate 5,-8 Spikes/s
Dodecadien-1-yl acetate [12Ac],Spike/s,CpomOR6a; replicate 1,4 Spike/s
same,Spike/s,CpomOR6a; replicate 2,4 Spike/s
same,Spike/s,CpomOR6a; replicate 3,-2 Spike/s
same,Spike/s,CpomOR6a; replicate 4,6 Spike/s
same,Spike/s,CpomOR6a; replicate 5,10 Spike/s
same,Spike/s,CpomOR6a; replicate 6,6 Spike/s
same,Spike/s,CpomOR6a; replicate 7,0 Spike/s
same,Spike/s,CpomOR6a; replicate 8,12 Spike/s
same,Spike/s,CpomOR6a; replicate 9,-12 Spike/s
